Target: Potassium voltage-gated channel subfamily KQT member 2 (Rattus norvegicus) (UniProt O88943)
Experiment: PubChem AID 588635
Settings: KCNQ2-CHO cells, manual whole-cell patch clamp current; at 0.1 µM; hits give high values

Sequence of Potassium voltage-gated channel subfamily KQT member 2 (Rattus norvegicus) (O88943 whole entry, looked up): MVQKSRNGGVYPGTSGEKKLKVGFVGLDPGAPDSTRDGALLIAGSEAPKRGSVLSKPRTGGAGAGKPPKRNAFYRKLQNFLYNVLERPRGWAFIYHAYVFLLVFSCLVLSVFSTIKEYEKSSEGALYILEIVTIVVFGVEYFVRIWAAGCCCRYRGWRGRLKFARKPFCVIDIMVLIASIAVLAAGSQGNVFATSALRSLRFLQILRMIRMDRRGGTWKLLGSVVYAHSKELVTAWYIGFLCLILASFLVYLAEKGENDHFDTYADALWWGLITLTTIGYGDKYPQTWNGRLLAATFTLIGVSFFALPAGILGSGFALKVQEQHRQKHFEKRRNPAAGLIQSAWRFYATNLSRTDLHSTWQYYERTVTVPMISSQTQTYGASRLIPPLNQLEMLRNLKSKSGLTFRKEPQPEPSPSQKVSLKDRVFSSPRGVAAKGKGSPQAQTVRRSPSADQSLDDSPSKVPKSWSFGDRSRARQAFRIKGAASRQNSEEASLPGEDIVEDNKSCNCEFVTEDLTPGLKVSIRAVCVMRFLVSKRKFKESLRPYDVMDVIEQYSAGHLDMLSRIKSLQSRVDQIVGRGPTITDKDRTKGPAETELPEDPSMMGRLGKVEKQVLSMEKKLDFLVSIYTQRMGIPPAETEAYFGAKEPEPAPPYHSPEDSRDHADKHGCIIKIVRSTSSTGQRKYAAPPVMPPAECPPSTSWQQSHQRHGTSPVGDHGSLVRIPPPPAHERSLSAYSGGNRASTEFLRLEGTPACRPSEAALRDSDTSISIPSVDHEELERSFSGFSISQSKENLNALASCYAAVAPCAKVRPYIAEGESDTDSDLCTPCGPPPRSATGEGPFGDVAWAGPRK

inhibition: 83.4%
Compound: CC[C@H](C(=O)Nc1ccccc1N1CCCC1)c1ccccc1

From PubChem BioAssay AID588635 (Johns Hopkins Ion Channel Center, 2011)
